In ChEMBL document CHEMBL1143512, “Antitubercular agents. Part 2: new thiolactomycin analogues active against Mycobacterium tuberculosis” (2005):
Converted amounts (≈) assume the structure as drawn.

tested on: Mycobacterium tuberculosis; assay: Minimum inhibitory concentration against Mycobacterium tuberculosis resistant clinical isolates; Range:4-16 ug/ml; format: functional

Row | SMILES | MIC [µg/mL]
1 | CC1=C(OCCCCCCCCCCBr)C(C)SC1=O (stereo not given) | 16 (≈ 44 µM)

tested on: Mycobacterium tuberculosis; assay: Minimum inhibitory concentration against Mycobacterium tuberculosis resistant clinical isolates; Range: 8->16 ug/ml; format: functional

Row | SMILES | MIC [µg/mL]
2 | NNC(=O)c1ccncc1 [ISONIAZID] | > 16

tested on: Mycobacterium tuberculosis; assay: Minimum inhibitory concentration against Mycobacterium tuberculosis resistant clinical isolates; Range: 1-4 ug/ml; format: functional

Row | SMILES | MIC [µg/mL]
3 | COC(=O)CSCCCCCCCCOC1=C(C)C(=O)SC1C (stereo not given) | 4 (≈ 11.1 µM)

tested on: Mycobacterium tuberculosis; assay: Minimum inhibitory concentration against Mycobacterium tuberculosis resistant clinical isolates; format: functional

Row | SMILES | MIC [µg/mL]
4 | CC1=C(OCCCCCCCCCCN2CCN(C)CC2)C(C)SC1=O (stereo not given) | > 16
5 | COC(=O)CSCCCCCCOC1=C(C)C(=O)SC1C (stereo not given) | > 16
6 | CC1=C(OCCCCCN2CCN(C)CC2)C(C)SC1=O (stereo not given) | > 16
7 | CC1=C(OCCCCCBr)C(C)SC1=O (stereo not given) | > 16
8 | CC1=C(OCCCCCCCCBr)C(C)SC1=O (stereo not given) | > 16
9 | COC(=O)CSCCCCCCCCCCOC1=C(C)C(=O)SC1C (stereo not given) | > 16
10 | CC1=C(OCCCCCN2CCOCC2)C(C)SC1=O (stereo not given) | > 16
11 | CC1=C(OCCCCCCCCN2CCOCC2)C(C)SC1=O (stereo not given) | > 16
12 | CC1=C(OCCCCCCCCCCN2CCOCC2)C(C)SC1=O (stereo not given) | > 16
13 | CC1=C(OCCCCCCN2CCN(C)CC2)C(C)SC1=O (stereo not given) | > 16
14 | CC1=C(OCCCCN2CCOCC2)C(C)SC1=O (stereo not given) | > 16
15 | COC(=O)CSCCCCCOC1=C(C)C(=O)SC1C (stereo not given) | > 16
16 | CC1=C(OCCCBr)C(C)SC1=O (stereo not given) | > 16
17 | CC1=C(OCCCCCCN2CCOCC2)C(C)SC1=O (stereo not given) | > 16
18 | CC1=C(OCCCN2CCN(C)CC2)C(C)SC1=O (stereo not given) | > 16
19 | COC(=O)CSCCCCOC1=C(C)C(=O)SC1C (stereo not given) | > 16
20 | CC1=C(OCCCCN2CCN(C)CC2)C(C)SC1=O (stereo not given) | > 16
21 | COC(=O)CSCCCOC1=C(C)C(=O)SC1C (stereo not given) | > 16
22 | CC1=C(OCCCCCCCCN2CCN(C)CC2)C(C)SC1=O (stereo not given) | > 16
23 | CC1=C(OCCCCCCBr)C(C)SC1=O (stereo not given) | > 16
24 | CC1=C(OCCCN2CCOCC2)C(C)SC1=O (stereo not given) | > 16
25 | CC1=C(OCCCCBr)C(C)SC1=O (stereo not given) | > 16
